Molecules are shown by their SMILES. Read-outs that look alike come from different tables or passages of the source. Where only a bound is given, the exact number is not on record here.

Data set [1] concerns the target T1, full-length beta-Catenin (Uniprot ID P35222) (Homo sapiens, UniProt P35222).
T1 construct: 10 nM full-length beta-Catenin (Uniprot ID P35222)
T1 sequence (P35222 1-781): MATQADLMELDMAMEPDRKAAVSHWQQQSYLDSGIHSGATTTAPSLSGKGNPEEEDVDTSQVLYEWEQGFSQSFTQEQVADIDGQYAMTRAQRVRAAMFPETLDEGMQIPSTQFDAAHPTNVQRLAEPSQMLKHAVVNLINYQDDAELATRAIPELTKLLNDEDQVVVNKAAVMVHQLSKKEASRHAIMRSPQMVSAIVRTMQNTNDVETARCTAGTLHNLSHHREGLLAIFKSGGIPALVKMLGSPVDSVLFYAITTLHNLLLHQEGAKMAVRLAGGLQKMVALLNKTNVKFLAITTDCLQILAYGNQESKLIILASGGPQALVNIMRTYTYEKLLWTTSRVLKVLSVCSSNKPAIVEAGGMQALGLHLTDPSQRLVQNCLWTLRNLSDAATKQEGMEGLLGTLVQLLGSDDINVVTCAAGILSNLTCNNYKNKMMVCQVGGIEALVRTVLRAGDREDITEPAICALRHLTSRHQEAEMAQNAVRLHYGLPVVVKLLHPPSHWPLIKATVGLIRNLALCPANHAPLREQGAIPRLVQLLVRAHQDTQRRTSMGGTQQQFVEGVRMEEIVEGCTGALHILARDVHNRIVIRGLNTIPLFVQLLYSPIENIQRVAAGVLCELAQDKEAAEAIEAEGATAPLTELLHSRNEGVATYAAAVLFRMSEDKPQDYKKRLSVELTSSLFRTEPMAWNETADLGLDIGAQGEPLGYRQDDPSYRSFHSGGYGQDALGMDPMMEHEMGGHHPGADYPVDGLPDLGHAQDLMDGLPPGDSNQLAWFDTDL
As to the kind of experiment: Fluorescence polarization IC50 (beta-catenin / 5FAM-TCF4 10-53 competition). In kind it is binding.

A short description of data set [2]: CHI Log D procedure. In kind it is physicochemical.
For data set [3], the target named is T2, beta-catenin/TCF4 engagement (Homo sapiens, UniProt P35222).
T2 construct: expressed in transfected cells; host or cells: HEK293
T2 sequence (P35222 1-781): T1 sequence (P35222 1-781)
As to the kind of experiment: Nano-BRET target engagement assay (B-cat-Halo & TCF4-Luc in HEK293 cells). The following applies: for inhibition at 10 µM: HEK293, @ 10 uM, read-out: NanoBRET % inh @ 10 uM. In kind it is cell-based. In general terms: BRET reads energy transfer from a luciferase to a nearby fluorophore.

Setting [4] is: fluorescence polarization, read-out: beta-Catenin FP IC50.

As to `CC[C@H](C)[C@@H]1NC(=O)[C@H](CC(=O)O)NC(=O)[C@]2(CC=CCCCC3(CCCC=CCCCCCC[C@@](C)(C(=O)N[C@@H](Cc4ccccc4)C(=O)N[C@@H](Cc4csc5ccccc45)C(=O)N[C@@H](Cc4c[nH]cn4)C(N)=O)NC(=O)[C@H](CC(N)=O)NC(=O)[C@H](Cc4ccccc4)NC(=O)[C@H](C)NC(=O)[C@H](C)NC(=O)[C@H](CC(=O)O)NC(=O)[C@H](CC(=O)O)NC3=O)NC1=O)CCCN2C(C)=O` (stereo partly drawn) [I-470, Ac-PL3-Asp-Ile-B5-Asp-Asp-Ala-Ala-Phe-Asn-S8-Phe-BztA-His-NH2], the IC50 in data set [1] (setting [4]) and in data set [1] (read-out: FP EC50) was 0.011 µM each time. The “CHI Log D” value in data set [2] (pH 7.4) was 2.394. For the same compound, in data set [3], the inhibition at 10 µM came out at 14.1%.
`CC(=O)N1CCC[C@]12CC=CCCCC1(CCCC=CCCCCCC[C@@](C)(C(=O)N[C@@H](Cc3ccccc3)C(=O)N[C@@H](Cc3csc4ccccc34)C(=O)N[C@@H](CC(N)=O)C(N)=O)NC(=O)[C@H](CC(N)=O)NC(=O)[C@H](Cc3ccccc3)NC(=O)[C@H](C)NC(=O)[C@H](C)NC(=O)[C@H](CCC(=O)O)NC(=O)[C@H](CC(=O)O)NC1=O)NC(=O)[C@H](CC(C)C)NC(=O)[C@H](CC(=O)O)NC2=O` (stereo partly drawn) [I-752, Ac-PL3-Asp-Leu-B5-Asp-Glu-Ala-Ala-Phe-Asn-S8-Phe-BztA-Asn-NH2]: the IC50 in data set [1] (setting [4]) was 0.016 µM; in data set [1] (read-out: FP EC50), 0.016 µM; in data set [3] (Abs IC50, read-out: NanoBRET Abs IC50), 9.9 µM; in data set [3] (absolute IC50, read-out: NanoBRET Abs IC50), 9.9 µM. Also, the “CHI Log D” value in data set [2] (pH 7.4) came to 2.419. Also, the inhibition at 10 µM in data set [3] worked out at 53%.
For the compound `CC(=O)N1CCC[C@]12CC=CCCCC1(CCCC=CCCCOC(=O)N3CC[C@@](C(=O)N[C@@H](Cc4ccsc4)C(=O)N[C@@H](Cc4csc5ccccc45)C(=O)N[C@@H](CCC(N)=O)C(N)=O)(C3)NC(=O)[C@H](CC(N)=O)NC(=O)[C@H](Cc3ccccc3)NC(=O)[C@H](C)NC(=O)[C@H](C)NC(=O)[C@H](CN(CC(=O)O)CC(F)(F)F)NC(=O)[C@H](CC(=O)O)NC1=O)NC(=O)[C@H](CC(C)(C)C)NC(=O)[C@H](CC(=O)O)NC2=O` (stereo partly drawn) [I-761, Ac-PL3-Asp-Npg-B5-Asp-TfeGA-Ala-Ala-Phe-Asn-PyrS2-3Thi-BztA-Gln-NH2], the IC50 in data set [1] (read-out: bCat FP IC50) is < 0.005 µM; in data set [1] (read-out: beta-Catenin FP IC50), 0.005 µM; in data set [3] (read-out: NanoBRET IC50), 5 µM. Further, the “CHI Log D” value in data set [2] (pH 7.4) amounted to 2.207. In data set [2] (pH 7.4), this compound had a logD of 2.2. In data set [3], the inhibition at 10 µM was 63.4%.
For the compound `CC(=O)N1CCC[C@]12CC=CCCCC1(CCCC=CCCCCOC(=O)N3CC[C@@](C(=O)N[C@@H](Cc4ccsc4)C(=O)N[C@@H](Cc4csc5ccccc45)C(=O)N[C@@H](CCC(N)=O)C(N)=O)(C3)NC(=O)[C@H](CC(N)=O)NC(=O)[C@H](Cc3ccccc3)NC(=O)[C@H](C)NC(=O)[C@H](C)NC(=O)[C@H](CC(=O)O)NC(=O)[C@H](CC(=O)O)NC1=O)NC(=O)[C@H](CC(C)(C)C)NC(=O)[C@H](CC(=O)O)NC2=O` (stereo partly drawn) [I-768, Ac-PL3-Asp-Npg-B5-Asp-Asp-Ala-Ala-Phe-Asn-PyrS3-3Thi-BztA-Gln-NH2], the IC50 in data set [1] (read-out: FP EC50) came out at 0.009 µM; in data set [1] (read-out: beta-Catenin FP IC50), 0.009 µM; in data set [3] (read-out: NanoBRET Abs IC50) it was 31.4 µM. Moreover, the “CHI Log D” value in data set [2] (pH 7.4) is on record as 2.043.
Regarding `CC(=O)N1CCC[C@]12CC=CCCCC1(CCCC=CCCCOC(=O)N3CC[C@@](C(=O)N[C@@H](Cc4ccsc4)C(=O)N[C@@H](Cc4csc5ccccc45)C(=O)N[C@@H](CCC(N)=O)C(N)=O)(C3)NC(=O)[C@H](CC(N)=O)NC(=O)[C@H](Cc3ccccc3)NC(=O)[C@H](C)NC(=O)[C@H](C)NC(=O)[C@H](CC(=O)O)NC(=O)[C@H](CC(=O)O)NC1=O)NC(=O)[C@H](CC(C)(C)C)NC(=O)[C@H](CC(=O)O)N(C)C2=O` (stereo partly drawn) [I-1160, Ac-PL3-NMeD-Npg-B5-Asp-Asp-Ala-Ala-Phe-Asn-PyrS2-3Thi-BztA-Gln-NH2], in data set [1] (setting [4]), the IC50 was 0.575 µM. The chromatographic logD in data set [2] (pH 7.4, CHI Log D) was 1.41.

A word on the logD: it is the decadic logarithm of the distribution of all forms, ionised or not, between an organic phase and buffer at a given pH. A high value points to a more lipophilic compound. One may read the chromatographic logD as a lipophilicity value derived from retention on a column. A low value points to a more hydrophilic compound.
